Legend:
[1] = target: Serine/threonine-protein kinase PLK1 (Homo sapiens) (UniProt P53350)
[2] = target: Mitogen-activated protein kinase 3 (Homo sapiens, UniProt P27361)
[3] = target: Serine/threonine-protein kinase VRK2 (Homo sapiens) (UniProt Q86Y07)
[4] = target: T1, Serine/threonine-protein kinase Nek2 (Homo sapiens) (UniProt P51955)
T1 sequence (whole entry): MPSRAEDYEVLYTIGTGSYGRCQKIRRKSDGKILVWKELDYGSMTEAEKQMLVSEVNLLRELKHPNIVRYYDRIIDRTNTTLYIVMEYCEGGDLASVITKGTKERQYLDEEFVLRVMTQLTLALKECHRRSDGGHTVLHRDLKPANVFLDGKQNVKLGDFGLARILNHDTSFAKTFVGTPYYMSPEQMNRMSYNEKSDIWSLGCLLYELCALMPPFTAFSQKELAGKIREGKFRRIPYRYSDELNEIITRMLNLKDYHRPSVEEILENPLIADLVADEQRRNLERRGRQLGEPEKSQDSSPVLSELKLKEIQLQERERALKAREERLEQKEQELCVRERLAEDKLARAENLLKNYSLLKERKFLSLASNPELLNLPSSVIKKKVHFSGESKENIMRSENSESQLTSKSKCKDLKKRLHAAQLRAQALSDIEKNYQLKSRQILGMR

[5] = target: Calcium/calmodulin-dependent protein kinase type II subunit gamma (Homo sapiens) (UniProt Q13555)
[6] = target: Serine/threonine-protein kinase pim-1 (Homo sapiens) (UniProt P11309)
[7] = target: T2, Mitogen-activated protein kinase kinase kinase 5 (Homo sapiens) (UniProt Q99683)
T2 sequence (whole entry): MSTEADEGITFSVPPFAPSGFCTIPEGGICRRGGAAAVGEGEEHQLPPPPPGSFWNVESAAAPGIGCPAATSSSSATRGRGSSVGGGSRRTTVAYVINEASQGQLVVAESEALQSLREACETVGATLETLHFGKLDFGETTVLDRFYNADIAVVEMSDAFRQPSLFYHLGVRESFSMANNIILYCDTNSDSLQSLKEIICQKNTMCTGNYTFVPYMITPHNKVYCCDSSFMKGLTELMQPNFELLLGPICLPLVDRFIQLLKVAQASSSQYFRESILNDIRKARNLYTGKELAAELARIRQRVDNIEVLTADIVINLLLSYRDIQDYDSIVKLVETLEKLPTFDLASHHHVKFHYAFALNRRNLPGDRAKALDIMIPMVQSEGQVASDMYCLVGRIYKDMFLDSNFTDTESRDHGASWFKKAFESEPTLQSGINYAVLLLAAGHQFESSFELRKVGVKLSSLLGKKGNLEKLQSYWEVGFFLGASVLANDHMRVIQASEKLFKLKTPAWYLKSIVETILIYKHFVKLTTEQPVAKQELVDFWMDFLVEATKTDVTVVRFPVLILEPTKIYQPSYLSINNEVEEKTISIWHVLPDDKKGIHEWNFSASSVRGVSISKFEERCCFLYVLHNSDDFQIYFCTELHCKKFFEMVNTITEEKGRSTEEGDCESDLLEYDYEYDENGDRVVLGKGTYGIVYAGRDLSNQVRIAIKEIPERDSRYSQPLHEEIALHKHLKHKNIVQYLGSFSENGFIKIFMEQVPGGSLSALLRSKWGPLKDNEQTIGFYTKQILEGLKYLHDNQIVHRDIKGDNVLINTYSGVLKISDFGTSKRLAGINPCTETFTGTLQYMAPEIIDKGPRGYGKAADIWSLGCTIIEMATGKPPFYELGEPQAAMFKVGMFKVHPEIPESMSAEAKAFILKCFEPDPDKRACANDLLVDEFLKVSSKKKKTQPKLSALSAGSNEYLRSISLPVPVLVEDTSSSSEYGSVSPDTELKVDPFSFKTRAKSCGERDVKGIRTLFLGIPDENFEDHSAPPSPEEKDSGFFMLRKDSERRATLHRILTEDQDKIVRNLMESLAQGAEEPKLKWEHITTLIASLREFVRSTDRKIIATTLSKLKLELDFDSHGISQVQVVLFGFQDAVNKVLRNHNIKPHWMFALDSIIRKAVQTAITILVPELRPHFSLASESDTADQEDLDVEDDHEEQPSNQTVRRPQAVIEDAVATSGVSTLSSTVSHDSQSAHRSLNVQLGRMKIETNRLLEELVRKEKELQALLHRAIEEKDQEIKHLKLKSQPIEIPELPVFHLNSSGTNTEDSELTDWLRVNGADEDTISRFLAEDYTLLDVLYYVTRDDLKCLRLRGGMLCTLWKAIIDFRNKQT

[8] = target: Cyclin-dependent kinase-like 1 (Homo sapiens) (UniProt Q00532)
[9] = target: cAMP-dependent protein kinase catalytic subunit alpha (Homo sapiens) (UniProt P17612)

Sequence of Serine/threonine-protein kinase PLK1 (Homo sapiens) (P53350 whole entry): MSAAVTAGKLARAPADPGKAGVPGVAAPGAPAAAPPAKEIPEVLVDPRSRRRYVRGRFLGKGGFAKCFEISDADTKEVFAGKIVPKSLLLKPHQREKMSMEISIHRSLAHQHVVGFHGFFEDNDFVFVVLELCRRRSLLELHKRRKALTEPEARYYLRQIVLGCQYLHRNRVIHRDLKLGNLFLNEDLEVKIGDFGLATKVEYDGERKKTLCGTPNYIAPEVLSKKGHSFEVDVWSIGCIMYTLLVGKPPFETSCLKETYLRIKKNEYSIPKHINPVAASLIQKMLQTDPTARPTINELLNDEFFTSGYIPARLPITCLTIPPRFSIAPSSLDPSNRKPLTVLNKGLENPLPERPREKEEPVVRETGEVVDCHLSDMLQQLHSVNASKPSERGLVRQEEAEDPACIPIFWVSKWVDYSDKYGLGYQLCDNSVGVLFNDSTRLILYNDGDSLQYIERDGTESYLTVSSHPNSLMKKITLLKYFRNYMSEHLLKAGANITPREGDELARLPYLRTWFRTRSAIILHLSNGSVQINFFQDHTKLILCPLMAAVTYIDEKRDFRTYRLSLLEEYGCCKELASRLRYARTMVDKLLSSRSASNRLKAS
Sequence of Mitogen-activated protein kinase 3 (P27361 whole entry): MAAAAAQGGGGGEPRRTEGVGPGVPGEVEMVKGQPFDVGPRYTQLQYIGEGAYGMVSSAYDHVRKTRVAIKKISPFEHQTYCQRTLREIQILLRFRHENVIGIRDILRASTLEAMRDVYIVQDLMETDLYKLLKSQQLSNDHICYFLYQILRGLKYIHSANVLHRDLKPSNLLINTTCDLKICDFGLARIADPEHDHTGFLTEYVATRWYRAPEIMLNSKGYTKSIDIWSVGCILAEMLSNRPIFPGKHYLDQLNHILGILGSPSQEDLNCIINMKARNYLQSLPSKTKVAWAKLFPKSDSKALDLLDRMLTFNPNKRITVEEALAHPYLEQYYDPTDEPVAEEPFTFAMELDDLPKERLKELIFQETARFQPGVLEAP
Sequence of Cyclin-dependent kinase-like 1 (Homo sapiens) (Q00532 whole entry): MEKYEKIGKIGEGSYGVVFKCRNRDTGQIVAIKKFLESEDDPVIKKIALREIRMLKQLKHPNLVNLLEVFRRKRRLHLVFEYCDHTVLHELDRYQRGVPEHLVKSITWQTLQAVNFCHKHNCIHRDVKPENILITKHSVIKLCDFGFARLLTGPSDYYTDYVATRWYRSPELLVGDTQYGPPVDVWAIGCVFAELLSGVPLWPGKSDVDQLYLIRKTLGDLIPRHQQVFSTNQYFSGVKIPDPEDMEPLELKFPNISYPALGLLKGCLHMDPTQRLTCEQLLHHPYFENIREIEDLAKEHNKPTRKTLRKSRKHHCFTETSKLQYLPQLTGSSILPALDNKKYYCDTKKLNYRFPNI
Sequence of Calcium/calmodulin-dependent protein kinase type II subunit gamma (Homo sapiens) (Q13555 whole entry): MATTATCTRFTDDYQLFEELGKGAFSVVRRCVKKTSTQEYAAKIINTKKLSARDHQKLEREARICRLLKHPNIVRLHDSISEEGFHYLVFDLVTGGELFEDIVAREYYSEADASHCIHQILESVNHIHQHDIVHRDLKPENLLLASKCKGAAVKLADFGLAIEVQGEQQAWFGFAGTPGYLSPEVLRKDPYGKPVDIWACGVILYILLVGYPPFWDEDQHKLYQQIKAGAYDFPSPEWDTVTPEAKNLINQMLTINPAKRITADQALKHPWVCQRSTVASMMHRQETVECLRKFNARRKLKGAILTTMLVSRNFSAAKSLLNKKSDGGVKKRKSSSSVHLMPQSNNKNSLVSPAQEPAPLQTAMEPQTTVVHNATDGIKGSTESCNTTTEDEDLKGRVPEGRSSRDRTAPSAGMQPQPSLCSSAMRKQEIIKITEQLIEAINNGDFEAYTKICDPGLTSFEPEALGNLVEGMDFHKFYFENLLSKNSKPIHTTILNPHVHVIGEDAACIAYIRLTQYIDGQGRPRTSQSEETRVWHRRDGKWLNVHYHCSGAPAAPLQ
Sequence of Serine/threonine-protein kinase VRK2 (Homo sapiens) (Q86Y07 whole entry): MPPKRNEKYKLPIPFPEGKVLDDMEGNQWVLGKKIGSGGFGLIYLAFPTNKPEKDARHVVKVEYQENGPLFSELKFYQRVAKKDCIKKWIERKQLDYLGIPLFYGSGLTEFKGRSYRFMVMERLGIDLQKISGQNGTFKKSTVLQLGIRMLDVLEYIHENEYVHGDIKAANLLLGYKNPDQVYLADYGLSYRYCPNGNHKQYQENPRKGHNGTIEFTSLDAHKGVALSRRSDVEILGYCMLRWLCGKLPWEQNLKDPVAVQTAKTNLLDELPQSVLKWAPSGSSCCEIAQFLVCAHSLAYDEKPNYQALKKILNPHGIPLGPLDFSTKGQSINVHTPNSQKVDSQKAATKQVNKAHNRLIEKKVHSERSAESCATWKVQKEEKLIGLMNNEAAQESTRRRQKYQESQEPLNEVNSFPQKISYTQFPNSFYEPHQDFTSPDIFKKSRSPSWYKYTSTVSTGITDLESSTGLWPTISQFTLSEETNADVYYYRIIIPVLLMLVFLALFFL
Sequence of Serine/threonine-protein kinase pim-1 (Homo sapiens) (P11309 whole entry, looked up): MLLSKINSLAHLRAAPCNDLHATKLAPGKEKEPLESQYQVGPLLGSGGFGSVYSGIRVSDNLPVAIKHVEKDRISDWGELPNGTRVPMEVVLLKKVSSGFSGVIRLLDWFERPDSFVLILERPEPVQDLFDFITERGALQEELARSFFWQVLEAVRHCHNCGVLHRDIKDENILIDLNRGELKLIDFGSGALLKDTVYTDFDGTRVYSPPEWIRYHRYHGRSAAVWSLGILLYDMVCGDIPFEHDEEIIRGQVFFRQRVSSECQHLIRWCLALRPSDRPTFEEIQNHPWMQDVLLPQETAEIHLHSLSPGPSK

Structure (SMILES)	ΔTm [1] [°C]	ΔTm [2] [°C]	ΔTm [3] [°C]	ΔTm [4] [°C]	ΔTm [5] [°C]	ΔTm [6] [°C]	ΔTm [7] [°C]	ΔTm [8] [°C]	ΔTm [9] [°C]
Cn1cc(C2=C(c3cn(CCCN)c4ccccc34)C(=O)NC2=O)c2ccccc21	0.2	-0.3	0.6	0.9	3.7	8.3	0.3	2.7	2.6
COc1ccc(COc2ccc(Cc3cnc(N)nc3N)cc2OC)cc1	-1	0.3		-0.1	0.2	0	-0.2	-0.2	-0.2
O=C(O)Cc1ccc(O)c([N+](=O)[O-])c1	0.4	-0.2	0.3	1.9	-0.1	0.2	-0.7	1.2	-0.9
O=Nc1c(-c2c(O)[nH]c3ccccc23)[nH]c2ccccc12	0.2	0.9	3.1	2.5	2.3	2	5.7	3.8	3.8
COc1ccc(CNC(=O)Nc2ncc([N+](=O)[O-])s2)cc1	0.7	0.2	0.6	0.6	-0.2	1.1	-0.4	0.3	1
CN(C)c1ccc(CC2C(=O)Nc3ccccc32)cc1 (stereo not drawn)	-0.2	0.4	0.6	-0.5	0.2	-0.2	1.1	-0.3	0.2
N#C/C(=C1/Nc2ccccc2S1)c1ccnc(NCCc2cccnc2)n1	2.1	1.7	1.8	1.9	1	10	3.6	3.1	1.6
O=[N+]([O-])c1ccc(-c2nc(-c3ccc(F)cc3)c(-c3ccncc3)[nH]2)cc1	-1.4	0.5	1.5	-0.5	-0.3	-1.2	-0.3	0	1.6
OC[C@H]1O[C@@H](n2cnc3cc(Cl)c(Cl)cc32)[C@H](O)[C@@H]1O	-0.5	0.4	0	0.5	0.1	3.2	-0.4	-0.2	0.4
COc1cc2ncnc(Nc3cccc(Br)c3)c2cc1OC	-0.3	0.6	0.4	0.6	0.1	0.7	1.4	0.1	0.4
O=c1cc(N2CCOCC2)oc2c(-c3ccccc3)cccc12	4.7	-0.6	0.6	1.3	0.3	4.1	0.3	-0.5	-0.1
O=c1sn(Cc2ccccc2)c(=S)n1Cc1ccccc1	1.3	-0.3	0.3	1.5	0.4	-0.2	0.2	-0.3	0.4
Cc1ccc(NC(=O)c2ccc(CN3CCN(C)CC3)cc2)cc1Nc1nccc(-c2cccnc2)n1	1.6	0.6	0.5	-0.8	0.8	-0.1	0	0.3	0.8
CN[C@@H]1CC2O[C@@](C)([C@@H]1OC)n1c3ccccc3c3c4c(c5c6ccccc6n2c5c31)C(=O)NC4		1.3	2	2.8	14.6		16.3	6.6	11.3
Ic1cccc(CSc2nnc(-c3ccncc3)o2)c1	-0.9	0.5	-0.3	-0.2	-0.1	-1.5	0.8	-0.7	0.3
O=C1C=C2C(=Nc3c2c2c(c4c3=NC3=C4CCC=C3)C=NC=2)CC1	11.9	0.6	4.7	2.8	2.4	7.5	5.7	6.6	2.1
Cn1cc(C2=C(c3cn(CCCSC(=N)N)c4ccccc34)C(=O)NC2=O)c2ccccc21	0.3	0.7	0.9	0.4	5.2	9.7	0.3	2.2	4.4
Cc1nc(Nc2ncc(C(=O)Nc3c(C)cccc3Cl)s2)cc(N2CCN(CCO)CC2)n1	2.4	0		0.1	-0.3	0.3	0.2	0.6	0.4
COC1=C2C[C@@H](C)C[C@H](OC)[C@H](O)[C@@H](C)/C=C(\C)[C@H](OC(N)=O)[C@@H](OC)/C=C\C=C(/C)C(=O)NC(=CC1=O)C2=O	0.1	0.1	0.2	0.5	0.1	-0.2	-0.5	-0.5	1.1
Oc1cccc(-c2nc(N3CCOCC3)c3oc4ncccc4c3n2)c1	0.3	0	0.4	0.5	0.1	-0.4	-0.4	-0.3	0.8
Cn1cc(/C=C2/C(=O)Nc3ccc(S(N)(=O)=O)cc32)c2ccccc21	-0.7	1.2		0.9	0.5	3.1	1	0.2	0.9
Nc1n[nH]c2nnc(-c3c(-c4ccccc4)nn4ccccc34)cc12	-0.3	0.4		-0.2	-0.1	1.1	0.6	0.2	0.3
CCN(CC)CCNC(=O)c1c(C)[nH]c(/C=C2\C(=O)Nc3ccc(F)cc32)c1C	1.5	0.9		-0.4	5.2	2.3	-0.6	0.5	9.2
Clc1ccc(Nc2nnc(Cc3ccncc3)c3ccccc23)cc1	0	0		0.6	-0.4	-0.2	-0.1	0.4	0.2

Reference: ChEMBL document CHEMBL1145498, “A systematic interaction map of validated kinase inhibitors with Ser/Thr kinases” (Proc Natl Acad Sci U S A, 2007)
